# Assay results from patent publication US20240010681A1, “PEPTIDES AND METHODS OF USE” (REALTA LIFE SCIENCES, INC., priority 2020, published 2024).
# Experiment: Pharmacokinetics, metabolite profiles and excretion of [14C]-PIC1-dPEG24 after single IV dose
# Format: in vivo, rat
# Procedure: […]. The six rats in Group 3 and Group 4 were further divided into two subgroups for serial blood collections at 10, 30 min and 1, 2, 3, 4, 6, 8, 24, and 48 hr. Blood was pooled by equal volume across animals at each time point, and aliquots (˜200 μL) of pooled blood were removed at each time point for total radioactivity, and the rest of blood samples were centrifuged to obtain plasma. Bile, urine, feces, and cage wash samples were collected up to 72 hr in bile duct cannulated (BDC) rats, and up to 168 hr in intact rats, and terminal blood samples were collected at the end of study (72 hr or 168 hr post-doses). The total radioactivity concentrations in the excreta, blood and plasma were determined by homogenization, combustion and/or liquid scintillation counting (LSC). The metabolite profiles and structure characterization were conducted in pooled plasma, urine, and bile samples using LC-UV/MS as well as radioactive detection. […].
# The radioactive profiles of rat plasma samples for the low dose group and the high dose group were qualitatively similar.
structure (smiles),measurement,setting,value
CC[C@H](C)[C@H](N)C(=O)N[C@@H](C)C(=O)N[C@@H](CC(C)C)C(=O)N[C@H](C(=O)N[C@@H](CC(C)C)C(=O)N[C@@H](CCC(=O)O)C(=O)N1CCC[C@H]1C(=O)N[C@H](C(=O)N[C@@H](CS)C(=O)N[C@@H](CS)C(=O)N[C@@H](CCC(N)=O)C(=O)N[C@@H](CCC(=O)O)C(=O)N[C@@H](CCCNC(=N)N)C(=O)N[C@@H](C)C(=O)N[C@@H](C)C(=O)NCCOCCOCCOCCOCCOCCOCCOCCOCCOCCOCCOCCOCCOCCOCCOCCOCCOCCOCCOCCOCCOCCOCCOCCOCCC(=O)O)[C@@H](C)CC)[C@@H](C)CC [[^14C]-PIC1-dPEG24],unchanged parent compound in urine,20 and 200 mg/kg dose,not detectable
same,unchanged parent compound and M2768 together in pooled plasma,"8 hr time point, small radioactive peak at 30 min post-IV-injection",still detectable
same,route of elimination of related radioactivity,"male BDC and intact rats, single IV 20 and 200 mg/kg",urinary excretion was major route of elimination
same,half-life,"rat, in vivo, intact rats, IV 20 and 200 mg/kg, read-out: plasma elimination half-lives for total radioactivity",≥ 40 h
same,dosed radioactivity recovered within 24 hr post-dose,"single IV 20 or 200 mg/kg, mainly via urine",> 70 % of the dose
